“And” between values parts separate entries of the source, which are not always exact repeats. Equal values may be shown once.
Legend:
[1] = system: HIV-specific polyfunctional CD8 T cells; experiment: Induced HIV-specific polyfunctional CD8+ T cells in PBMC cultures from HIV-1 infected subjects on cART; assay type: cell-based, human; conditions: for Median HIV-specific polyfunctional CD8 T cells (% proliferating CD8+ cells double positive for IFN-γ and TNF-α): 5 subjects, vehicle 0.73% (Example 15 group), 0.13% (Example 98 group)
[2] = system: HIV-1 expression in PBMC cultures from HIV-1 infected subjects on cART; experiment: Induced HIV-1 expression in PBMC cultures from HIV-1 infected subjects on cART (HIV-1 RNA in culture supernatant, COBAS TaqMan); assay type: cell-based, human; conditions: for Fold HIV-1 Activation, Geometric Mean with ≧2-Fold-Activation / Fold HIV-1 Activation, Range with ≧2-Fold-Activation: N = 5 subjects
Description: In some experiments, IL-15, the TLR8 modulating compound of Example 15 or the combination of IL-15 and Example 15 were used at the indicated concentrations (Table 4). The cultures were maintained in the presence of antivirals (elvitegravir and efavirenz at 100 nM each) to prevent viral spread and amplification in order to measure the quantity of virus produced (latency reversal) by the TLR8 modulating compounds. At the end of the incubation period, cell-free culture supernatants were harvested and HIV-1 RNA levels were quantified by the COBAS® AmpliPrep/COBAS®TaqMan HIV-1 Test, v2.0 (Roche).
In each table, fold-activation is calculated as a ratio of HIV-1 RNA copies per ml of cell culture supernatants from TLR8 agonist treated samples and DMSO treated controls. Geometric mean fold-activation from three independent incubation samples for each condition of each subject's PBMCs.
To assess if the latency reversal induced by TLR8 agonism could further potentiate latency reversal by a separate mechanisms, we treated cells as described above with IL-15, Example 15, or a combination of IL-15 and Example 15 (Table 4).

[3] = system: serum cytokines and chemokines associated with TLR8 activation; experiment: Induction of cytokines and chemokines in Rhesus macaques (serum, Luminex); assay type: in vivo
Description: The TLR8 modulator of Example 65 was formulated in 2% ethanol, 40% polyethylene glycol 300, and 58% 0.01 N hydrochloric acid. Oral solutions of formulations were prepared by dissolving a sufficient amount of the compound in the 2% ethanol, 40% polyethylene glycol 300, and 58% 0.01 N hydrochloric acid vehicle to arrive at 0.5, 1.5, or 5 mg/ml of Example 65. Rhesus macaques were dosed orally with 1.2 to 2 mls/kg to achieve dose levels of 1, 3, 6, or 10 mg/kg Example 65. Blood samples were collected at 2, 4, 8, 12, 24 and 48 hours postdose (FIG. 5) and allowed to clot under ambient conditions prior to centrifugation to obtain serum. The indicated cytokines and chemokines were quantified in serum with a multiplexed Luminex® assay following the manufacturer's instructions (Life Technologies). […] At 10 and 6 mg/kg, IL-12, IL-1RA and MCP-1 peaked near 10 ng/ml and IL-6 peaked at 1 ng/ml.

[4] = Example 15 1000 nM and/or IL-15 1 nM, subjects 205-210

`CCCCC(C)(CO)Nc1nc(N)nc2cc(F)cnc12` (stereo not drawn) [Example 98] was tested, and the “Patients in whom increases were seen” value ([1]; 100 nM) was 4 of 5, the “Median HIV-specific polyfunctional CD8 T cells (% proliferating CD8+ cells double positive for IFN-γ and TNF-α)” value ([1]; 100 nM with HIV peptide pool) was 0.93% and the “Patients in whom increases were seen” value ([1]; 1000 nM) was 4 of 5. The “Increase of median HIV-specific polyfunctional CD8 T cells” value ([1]; 1000 nM combined with the HIV specific peptide pool, p<0.05) was 7.1 fold and the “Median HIV-specific polyfunctional CD8 T cells (% proliferating CD8+ cells double positive for IFN-γ and TNF-α)” value ([1]; 1000 nM with HIV peptide pool) was 0.92%.

`CCC[C@@H](CO)Nc1nc(N)nc2cc(F)c(F)cc12` [Example 119, (S)-2-((2-amino-6,7-difluoroquinazolin-4-yl)amino)pentan-1-ol, reference compound] was tested, and the “Fold HIV-1 Activation” value ([2]; 156 nM, 4 days, individual subjects 151-155, vs DMSO) was 3.6 fold and 4.9 fold and 0.4 fold, the “Fold HIV-1 Activation, Geometric Mean with ≧2-Fold-Activation” value ([2]; 156 nM) was 4.2 fold and the “Fold HIV-1 Activation, Range with ≧2-Fold-Activation” value (shortened to “Fold HIV-1 Activation, Range”) ([2]; 156 nM) was 3.6-4.9 fold. The “N with ≧2-Fold-Activation” value ([2]; 156 nM, subjects 151-155) was 2 of 3, the “N with ≧2-Fold-Activation (%)” value ([2]; 156 nM, subjects 151-155) was “(67) %” and the “Fold HIV-1 Activation” value ([2]; 625 nM, 4 days, individual subjects 151-155, vs DMSO) was 3.4 fold and 4.1 fold and 4.8 fold and 0.3 fold and 0.5 fold. For the same compound, the “Fold HIV-1 Activation, Geometric Mean with ≧2-Fold-Activation” value ([2]; 625 nM) was 4.1 fold, the “Fold HIV-1 Activation, Range” value ([2]; 625 nM) was 3.4-4.8 fold and the “N with ≧2-Fold-Activation” value ([2]; 625 nM, subjects 151-155) was 3 of 5. The “N with ≧2-Fold-Activation (%)” value ([2]; 625 nM, subjects 151-155) was “(60) %”, the “Fold HIV-1 Activation” value ([2]; 2,500 nM, 4 days, individual subjects 151-155, vs DMSO) was 4.1 fold and 4.2 fold and 3.2 fold and 5.2 fold and 2.2 fold and the “Fold HIV-1 Activation, Geometric Mean with ≧2-Fold-Activation” value ([2]; 2,500 nM) was 3.6 fold. For the same compound, the “Fold HIV-1 Activation, Range” value ([2]; 2,500 nM) was 2.2-5.2 fold, the “N with ≧2-Fold-Activation” value ([2]; 2,500 nM, subjects 151-155) was 5 of 5 and the “N with ≧2-Fold-Activation (%)” value ([2]; 2,500 nM, subjects 151-155) was “(100) %”. The “Fold HIV-1 Activation, Geometric Mean with ≧2-Fold-Activation” value ([2]; 156, 625, or 2500 nM) was 4.1 fold, the “Fold HIV-1 Activation, Range” value ([2]; 156, 625, or 2500 nM) was 2.2-5.2 fold and the “N with ≧2-Fold-Activation” value ([2]; 156, 625, or 2500 nM, subjects 151-155) was 5 out of 5 and 5 of 5.

For “IL-15: interleukin IL-15, used at 1 nM as a separate latency reversal mechanism”, the “Fold HIV-1 Activation, Geometric Mean” value ([2]; Example 15 1000 nM and/or IL-15 1 nM, N = 6 subjects) was 2.9 fold, the “Fold HIV-1 Activation” value ([2]; Example 15 1000 nM and/or IL-15 1 nM, individual subjects 205-210, vs DMSO) was 2.6 fold and 3.3 fold and 4.4 fold and 6.3 fold and 1.4 fold and 1.6 fold and the “N with ≧2-Fold-Activation” value [2, 4] was 4 of 6. The “N with ≧2-Fold-Activation (%)” value [2, 4] was 66%.

For `CCCC[C@](C)(CNC(C)=O)Nc1nc(N)nc2cc(Cl)cnc12` [Example 65], the “Induction of cytokines associated with TLR8 activation, including IL-12, IL-6, IL-1RA and MCP-1” value ([3]; oral, 1, 3, 6, or 10 mg/kg) was “induced in a dose-dependent manner”, the “Time of peak cytokine concentrations post-dose” value ([3]; oral, 1, 3, 6, or 10 mg/kg) was 2 h and the “Serum IL-1RA peak” value ([3]; oral, 10 and 6 mg/kg) was roughly 10 ng/mL. For the same compound, the “Serum IL-6 peak” value ([3]; oral, 10 and 6 mg/kg) was 1 ng/mL, the “Serum IL-12 peak” value ([3]; oral, 10 and 6 mg/kg) was roughly 10 ng/mL and the “Serum MCP-1 peak” value ([3]; oral, 10 and 6 mg/kg) was roughly 10 ng/mL.

From US20170071944A1, “MODULATORS OF TOLL-LIKE RECEPTORS FOR THE TREATMENT OF HIV” (Gilead Sciences, Inc., priority 2015, published 2017)
